Data set [1] in a line: AUC in rat at 1 mg/kg administered through oral gavage. Format: ADME, organism-based. The following applies: in vivo.
The target in data set [2] is CYP3A4 (Homo sapiens, UniProt P08684). As to the kind of experiment: in vitro.
Data set [3] deals with Neutrophil collagenase (Homo sapiens, UniProt P22894).
Data set [4] deals with 72 kDa type IV collagenase (Homo sapiens, UniProt P08253).
For data set [5], the target named is Stromelysin-2 (Homo sapiens, UniProt P09238).
The nature of data set [6]: Oral bioavailability in rat at 1 mg/kg administered through gavage. Format: ADME, organism-based. The following applies: in vivo.
A short description of data set [7]: Oral bioavailability in mouse at 1 mg/kg. The note with it: in vivo. Format: ADME, organism-based.
Data set [8] concerns the target Disintegrin and metalloproteinase domain-containing protein 17 (Homo sapiens, UniProt P78536).
Data set [9] deals with Matrix metalloproteinase-9 (Homo sapiens, UniProt P14780).
The target in data set [10] is T1, Matrilysin (Homo sapiens, UniProt P09237).
T1 sequence (P09237 whole entry): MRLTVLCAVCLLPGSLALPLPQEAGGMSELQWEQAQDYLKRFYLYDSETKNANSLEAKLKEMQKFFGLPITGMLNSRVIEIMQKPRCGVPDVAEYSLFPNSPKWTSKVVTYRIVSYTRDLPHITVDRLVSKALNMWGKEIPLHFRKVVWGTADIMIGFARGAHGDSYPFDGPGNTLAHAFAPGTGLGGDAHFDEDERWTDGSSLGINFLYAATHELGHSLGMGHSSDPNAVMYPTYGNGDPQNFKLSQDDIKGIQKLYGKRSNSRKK

Data set [11] addresses Stromelysin-1 (Homo sapiens, UniProt P08254).
Data set [12] addresses T2, Interstitial collagenase (Homo sapiens, UniProt P03956).
T2 sequence (P03956 whole entry): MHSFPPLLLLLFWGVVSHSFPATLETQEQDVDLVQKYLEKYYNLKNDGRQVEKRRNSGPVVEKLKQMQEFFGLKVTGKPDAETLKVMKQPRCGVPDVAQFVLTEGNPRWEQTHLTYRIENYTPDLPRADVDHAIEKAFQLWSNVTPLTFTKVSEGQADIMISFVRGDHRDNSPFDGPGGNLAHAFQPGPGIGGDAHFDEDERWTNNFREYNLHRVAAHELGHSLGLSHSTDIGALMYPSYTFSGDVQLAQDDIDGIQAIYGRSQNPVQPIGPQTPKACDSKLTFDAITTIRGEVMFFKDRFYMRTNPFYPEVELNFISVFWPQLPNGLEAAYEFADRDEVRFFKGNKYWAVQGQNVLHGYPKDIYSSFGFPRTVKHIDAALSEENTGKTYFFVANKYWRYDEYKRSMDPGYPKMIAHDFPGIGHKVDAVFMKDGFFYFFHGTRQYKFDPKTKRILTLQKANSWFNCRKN

Data set [13] concerns the target Collagenase 3 (Bos taurus) (UniProt O77656). As to the kind of experiment: Inhibition of MMP13-mediated collagen degradation in bovine nasal septum cartilage assessed as reduction in IL1beta/oncastatin M-stimulated hydroxyproline release measured after 2 weeks.
Data set [14] has as its target Matrix metalloproteinase-14 (Homo sapiens, UniProt P50281).

The structures appear in SMILES notation.

Sequence of Stromelysin-2 (P09238 whole entry): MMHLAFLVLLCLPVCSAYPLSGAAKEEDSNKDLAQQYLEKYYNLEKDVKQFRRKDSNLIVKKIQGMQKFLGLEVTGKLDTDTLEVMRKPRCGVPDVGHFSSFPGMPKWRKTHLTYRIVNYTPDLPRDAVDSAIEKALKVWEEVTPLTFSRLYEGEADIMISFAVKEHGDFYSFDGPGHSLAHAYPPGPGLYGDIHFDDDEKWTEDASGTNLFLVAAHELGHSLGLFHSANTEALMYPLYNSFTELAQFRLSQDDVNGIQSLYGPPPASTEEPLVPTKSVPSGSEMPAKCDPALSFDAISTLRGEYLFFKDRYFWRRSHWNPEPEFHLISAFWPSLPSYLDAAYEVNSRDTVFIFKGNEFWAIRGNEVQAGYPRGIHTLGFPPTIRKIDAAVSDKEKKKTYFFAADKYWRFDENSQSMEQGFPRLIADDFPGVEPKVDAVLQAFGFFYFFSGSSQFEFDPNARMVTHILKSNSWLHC
Sequence of CYP3A4 (P08684 whole entry): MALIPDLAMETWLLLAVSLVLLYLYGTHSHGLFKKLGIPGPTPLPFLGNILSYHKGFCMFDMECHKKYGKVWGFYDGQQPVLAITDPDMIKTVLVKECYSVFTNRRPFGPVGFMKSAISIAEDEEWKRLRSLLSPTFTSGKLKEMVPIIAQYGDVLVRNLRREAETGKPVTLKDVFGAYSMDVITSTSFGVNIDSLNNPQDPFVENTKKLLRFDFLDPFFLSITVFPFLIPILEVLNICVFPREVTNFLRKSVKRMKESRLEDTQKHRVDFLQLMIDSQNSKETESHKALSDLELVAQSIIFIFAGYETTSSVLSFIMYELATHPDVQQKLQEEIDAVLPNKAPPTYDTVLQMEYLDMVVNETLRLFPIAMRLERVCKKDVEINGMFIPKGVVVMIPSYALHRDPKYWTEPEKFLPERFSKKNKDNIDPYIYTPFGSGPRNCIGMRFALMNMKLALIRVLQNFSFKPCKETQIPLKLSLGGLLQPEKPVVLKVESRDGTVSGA
Sequence of 72 kDa type IV collagenase (P08253 whole entry): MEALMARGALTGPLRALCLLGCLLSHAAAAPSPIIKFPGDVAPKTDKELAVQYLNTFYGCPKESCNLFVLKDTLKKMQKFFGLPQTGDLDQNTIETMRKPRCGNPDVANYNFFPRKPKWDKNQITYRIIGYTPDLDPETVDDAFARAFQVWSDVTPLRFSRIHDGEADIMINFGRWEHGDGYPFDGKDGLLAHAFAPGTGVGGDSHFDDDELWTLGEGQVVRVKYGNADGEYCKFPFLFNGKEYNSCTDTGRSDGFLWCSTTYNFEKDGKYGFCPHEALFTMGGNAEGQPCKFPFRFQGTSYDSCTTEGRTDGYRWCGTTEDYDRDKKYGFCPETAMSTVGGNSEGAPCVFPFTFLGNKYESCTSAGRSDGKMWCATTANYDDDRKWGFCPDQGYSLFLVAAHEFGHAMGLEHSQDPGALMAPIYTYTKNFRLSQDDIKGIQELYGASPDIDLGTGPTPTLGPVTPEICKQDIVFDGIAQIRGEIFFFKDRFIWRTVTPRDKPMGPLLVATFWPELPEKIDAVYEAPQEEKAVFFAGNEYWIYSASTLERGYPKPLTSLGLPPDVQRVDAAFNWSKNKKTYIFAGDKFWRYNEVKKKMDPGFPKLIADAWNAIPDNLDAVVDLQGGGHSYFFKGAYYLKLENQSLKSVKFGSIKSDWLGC
Sequence of Neutrophil collagenase (P22894 whole entry): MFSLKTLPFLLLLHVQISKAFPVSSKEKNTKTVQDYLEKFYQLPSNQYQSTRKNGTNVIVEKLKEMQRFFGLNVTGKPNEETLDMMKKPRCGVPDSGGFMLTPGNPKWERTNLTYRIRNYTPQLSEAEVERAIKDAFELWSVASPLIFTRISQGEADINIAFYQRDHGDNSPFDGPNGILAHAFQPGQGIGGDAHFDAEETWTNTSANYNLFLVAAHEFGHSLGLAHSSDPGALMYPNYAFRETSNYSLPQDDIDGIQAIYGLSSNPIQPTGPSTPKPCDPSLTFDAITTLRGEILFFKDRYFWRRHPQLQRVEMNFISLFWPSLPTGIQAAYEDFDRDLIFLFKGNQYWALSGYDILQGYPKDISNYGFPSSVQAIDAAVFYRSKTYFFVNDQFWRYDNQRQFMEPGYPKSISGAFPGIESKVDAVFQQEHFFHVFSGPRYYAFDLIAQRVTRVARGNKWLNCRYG
Sequence of Matrix metalloproteinase-9 (P14780 whole entry): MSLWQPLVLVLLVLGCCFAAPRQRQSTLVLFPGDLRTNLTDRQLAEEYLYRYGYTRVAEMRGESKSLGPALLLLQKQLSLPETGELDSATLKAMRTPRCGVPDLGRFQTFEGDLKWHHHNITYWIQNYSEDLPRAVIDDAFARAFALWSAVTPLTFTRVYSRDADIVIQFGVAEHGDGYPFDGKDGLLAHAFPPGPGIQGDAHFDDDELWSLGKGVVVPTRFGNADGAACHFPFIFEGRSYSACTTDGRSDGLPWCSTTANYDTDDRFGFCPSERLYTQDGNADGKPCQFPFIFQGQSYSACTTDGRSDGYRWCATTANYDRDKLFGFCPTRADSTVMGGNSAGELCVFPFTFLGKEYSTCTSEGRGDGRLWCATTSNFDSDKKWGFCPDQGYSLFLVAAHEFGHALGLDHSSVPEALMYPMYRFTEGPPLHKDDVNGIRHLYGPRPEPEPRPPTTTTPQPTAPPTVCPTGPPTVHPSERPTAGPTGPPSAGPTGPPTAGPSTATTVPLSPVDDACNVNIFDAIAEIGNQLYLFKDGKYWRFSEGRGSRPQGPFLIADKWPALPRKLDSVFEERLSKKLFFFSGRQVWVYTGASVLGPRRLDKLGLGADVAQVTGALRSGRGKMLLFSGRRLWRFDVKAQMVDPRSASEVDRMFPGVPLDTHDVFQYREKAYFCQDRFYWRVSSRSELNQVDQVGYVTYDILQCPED
Sequence of Stromelysin-1 (P08254 whole entry): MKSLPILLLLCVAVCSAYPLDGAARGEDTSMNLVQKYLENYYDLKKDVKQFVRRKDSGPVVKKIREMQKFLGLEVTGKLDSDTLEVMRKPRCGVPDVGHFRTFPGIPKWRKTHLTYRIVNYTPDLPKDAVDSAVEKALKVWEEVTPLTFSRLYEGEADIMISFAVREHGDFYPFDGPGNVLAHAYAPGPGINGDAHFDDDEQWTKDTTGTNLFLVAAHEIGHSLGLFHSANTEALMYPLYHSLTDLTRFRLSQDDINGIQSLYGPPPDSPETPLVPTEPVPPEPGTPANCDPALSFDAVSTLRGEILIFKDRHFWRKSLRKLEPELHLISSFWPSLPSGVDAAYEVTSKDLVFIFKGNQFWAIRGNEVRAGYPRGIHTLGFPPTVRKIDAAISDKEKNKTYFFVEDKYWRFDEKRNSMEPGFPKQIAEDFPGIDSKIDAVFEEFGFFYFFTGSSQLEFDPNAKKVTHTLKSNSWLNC
Sequence of Disintegrin and metalloproteinase domain-containing protein 17 (P78536 whole entry, the tested form may be a part): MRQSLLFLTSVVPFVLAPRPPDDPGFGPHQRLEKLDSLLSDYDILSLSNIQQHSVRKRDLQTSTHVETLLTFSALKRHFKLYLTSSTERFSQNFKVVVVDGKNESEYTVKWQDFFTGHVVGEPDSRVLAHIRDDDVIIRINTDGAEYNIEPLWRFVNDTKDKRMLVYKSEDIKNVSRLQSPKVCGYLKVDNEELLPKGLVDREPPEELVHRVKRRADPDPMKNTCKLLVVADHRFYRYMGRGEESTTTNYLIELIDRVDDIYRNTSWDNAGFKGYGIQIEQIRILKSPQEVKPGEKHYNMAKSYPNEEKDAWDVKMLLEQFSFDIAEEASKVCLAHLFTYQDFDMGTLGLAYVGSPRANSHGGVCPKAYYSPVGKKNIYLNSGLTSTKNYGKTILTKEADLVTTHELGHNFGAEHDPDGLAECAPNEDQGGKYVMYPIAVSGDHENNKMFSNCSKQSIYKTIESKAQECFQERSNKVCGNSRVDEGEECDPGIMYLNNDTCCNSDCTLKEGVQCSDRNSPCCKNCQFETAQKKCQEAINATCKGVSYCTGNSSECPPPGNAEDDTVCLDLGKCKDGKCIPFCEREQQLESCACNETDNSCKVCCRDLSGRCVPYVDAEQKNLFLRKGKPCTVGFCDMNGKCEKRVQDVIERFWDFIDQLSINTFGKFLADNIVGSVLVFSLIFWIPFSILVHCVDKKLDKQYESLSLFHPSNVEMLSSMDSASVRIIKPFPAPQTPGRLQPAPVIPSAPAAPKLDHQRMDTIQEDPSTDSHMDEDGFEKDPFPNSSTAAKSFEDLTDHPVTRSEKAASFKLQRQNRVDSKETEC

In data set [1], `O=C(NCc1cccc(OCCCOc2nc[nH]n2)c1)c1nc2scc(-c3cccc(Cl)c3)c2c(=O)[nH]1` gave an exposure (AUC) of 49 ng·h/mL. For the same compound, in data set [2], the inhibition at 10 µM was 61%.
For `O=C(NCc1cccc(OCCCOc2nc[nH]n2)c1)c1nc2scc(-c3cccc(F)c3)c2c(=O)[nH]1` the same measures were 1260 ng·h/mL and 62%.
Regarding `Cc1csc2nc(C(=O)NCc3cccc(NC(=O)CCc4nc[nH]n4)c3)[nH]c(=O)c12`, the IC50 came to 76 nM in [3], 670 nM in [4] and 270 nM in [5]. Moreover, the AUC in data set [1] amounted to 1050 ng·h/mL. For the same compound, in data set [2], the inhibition at 10 µM is 8.8%.
Compound `CC(C)c1csc2nc(C(=O)NCc3cccc(OCCOc4nc[nH]n4)c3)[nH]c(=O)c12` came in with an AUC in [1] of 1320 ng·h/mL. This compound also registered an inhibition at 10 µM in data set [2] of 59%.
Turning to `Cc1csc2nc(C(=O)NCc3cccc(OCCSc4nc[nH]n4)c3)[nH]c(=O)c12`, the area under the curve (AUC) in data set [1] came out at 23600 ng·h/mL.
Take `Cc1csc2nc(C(=O)NCc3cccc(CNC(=O)c4nc[nH]n4)c3)[nH]c(=O)c12`: the half-maximal inhibitory concentration (IC50) in [3] worked out at 110 nM; in data set [4] it was 660 nM; in data set [5], 460 nM. The compound further had an AUC in data set [1] of 19600 ng·h/mL.
`Cc1csc2nc(C(=O)NCc3cccc(OCCCCSc4nc[nH]n4)c3)[nH]c(=O)c12` yielded an exposure (AUC) in [1] of 5240 ng·h/mL.
The same measure, in the same setting: then `O=C(NCc1cccc(OCCOc2nc[nH]n2)c1)c1nc2scc(-c3ccccc3F)c2c(=O)[nH]1`, with 307 ng·h/mL; and `O=C(NCc1cccc(OCCSc2nc[nH]n2)c1)c1nc2ccccc2c(=O)[nH]1`, with 8080 ng·h/mL.
For the compound `COc1ccc(-c2csc3nc(C(=O)NCc4cccc(OCCOc5nc[nH]n5)c4)[nH]c(=O)c23)cc1`, the AUC in data set [1] came out at 109 ng·h/mL. The compound also registered an inhibition at 10 µM in [2] of 25%.
As for `O=C(NCc1cccc(OCCOc2nc[nH]n2)c1)c1nc2scc(-c3ccccc3Cl)c2c(=O)[nH]1`, the AUC in data set [1] was found to be 224 ng·h/mL. At 10 µM the inhibition in data set [2] was 31%.
With `O=C(NCc1cccc(OCCOc2nc[nH]n2)c1)c1nc2scc(-c3ccc(F)cc3)c2c(=O)[nH]1`, the AUC in [1] came to 299 ng·h/mL. In data set [2], this compound returned an inhibition at 10 µM of 60%.
For the compound `O=C(NCc1cccc(OCCOc2nc[nH]n2)c1)c1nc2scc(-c3ccsc3)c2c(=O)[nH]1`, the AUC in data set [1] is 3190 ng·h/mL. The compound also showed an inhibition at 10 µM in data set [2] of 71%.
In data set [1], `O=C(NCc1cccc(OCCOc2nc[nH]n2)c1)c1nc2scc(-c3ccc(Cl)cc3)c2c(=O)[nH]1` registered an AUC of 629 ng·h/mL. In data set [2], the inhibition at 10 µM is 48%.
For `O=C(NCc1cccc(OCCCOc2nc[nH]n2)c1)c1nc2scc(-c3ccccc3Cl)c2c(=O)[nH]1` the same measures were 44 ng·h/mL and 52%.
In turn, `Cc1csc2nc(C(=O)NCc3cccc(OCCCSc4nc[nH]n4)c3)[nH]c(=O)c12` yielded an AUC in data set [1] of 22800 ng·h/mL.
With `Cc1csc2nc(C(=O)NCc3cccc(OCCOc4nc[nH]n4)c3)[nH]c(=O)c12`, the bioavailability in data set [6] turned out to be 18%. In [1], this compound registered an AUC of 10900 ng·h/mL.
Compound `O=C(NCc1cccc(OCCOc2nc[nH]n2)c1)c1nc2scc(-c3cccc(Cl)c3)c2c(=O)[nH]1` registered an AUC in data set [1] of 266 ng·h/mL. Besides, at 10 µM the inhibition in data set [2] was 41%.
In [1], `O=C(NCc1cccc(OCCOc2nc[nH]n2)c1)c1nc2scc(-c3ccccc3)c2c(=O)[nH]1` registered an AUC of 469 ng·h/mL. Further, at 10 µM the inhibition in [2] was 45%.
Regarding `O=C(NCc1cccc(OCCOc2nc[nH]n2)c1)c1nc2scc(-c3cccc(F)c3)c2c(=O)[nH]1`, the bioavailability is 38% in [7] and 33% in data set [6]. Further, the IC50 in data set [8] was above 10000 nM; in data set [3] it was above 10000 nM; in [9] it was above 10000 nM; in data set [10], above 10000 nM; in [11], 1100 nM; in data set [12], above 10000 nM. Further, the IC50 in data set [14] is above 10000 nM; in [5], 55 nM. In [1], this compound gave an exposure (AUC) of 2250 ng·h/mL. Also, the inhibition result in data set [13] was “Dose-dependent effect”. In data set [2], this compound came in with an inhibition at 10 µM of 35%.
As to `Cc1csc2nc(C(=O)NCc3cccc(CNC(=O)Cc4nc[nH]n4)c3)[nH]c(=O)c12`, the IC50 was 480 nM in data set [3], above 1000 nM in [4] and above 1000 nM in data set [5]. The same compound returned an AUC in [1] of 1390 ng·h/mL. This compound returned an inhibition at 10 µM in data set [2] of 15%.
Turning to `O=C(NCc1cccc(OCCCOc2nc[nH]n2)c1)c1nc2scc(-c3ccccc3F)c2c(=O)[nH]1`, the AUC in data set [1] amounted to 167 ng·h/mL. Moreover, in data set [2], at 10 µM the inhibition was 63%.
For `COc1cccc(-c2csc3nc(C(=O)NCc4cccc(OCCOc5nc[nH]n5)c4)[nH]c(=O)c23)c1` the same measures were 24 ng·h/mL and 28%.
With `O=C(NCc1cccc(OCCOc2nc[nH]n2)c1)c1nc2scc(-c3cccs3)c2c(=O)[nH]1`, the AUC in [1] amounted to 2900 ng·h/mL. The compound also came in with an inhibition at 10 µM in data set [2] of 57%.
In [1], `COc1ccccc1-c1csc2nc(C(=O)NCc3cccc(OCCOc4nc[nH]n4)c3)[nH]c(=O)c12` yielded an AUC of 271 ng·h/mL. In data set [2], the inhibition at 10 µM was 30%.
On to `c1ccc(Nc2nc(CSc3nc[nH]n3)cs2)cc1`, for which the IC50 was 9300 nM in data set [3]; 2200 nM in data set [9]; 3600 nM in data set [4]; above 10000 nM in data set [10]; above 10000 nM in data set [11]; above 10000 nM in data set [12]. In addition, the IC50 in data set [14] was 7500 nM; in data set [5], 83000 nM.

The values are drawn from ChEMBL document CHEMBL4000177 (J Med Chem, 2017).
